Data: ChEMBL document CHEMBL1201862, “PubChem BioAssay data set” (2004)
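Briefly, cells in 96-well plates were exposed to five compound concentrations for 48 h, and endpoints were estimated by linear interpolation. The concentration for 50% growth inhibition is given as GI50.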 The source made the active and inactive calls. No stated cut-off is given here; in the data, active = GI50 up to about 1.1 µM and inactive = higher.

Assays:
Assay in all cases: NCI-60 cell line screen, 48 h
OVCAR-3 = test system: OVCAR-3
RXF 393 = test system: RXF 393
BT-549 = test system: BT-549
SK-MEL-5 = test system: SK-MEL-5
TK-10 = test system: TK-10
COLO 205 = test system: COLO 205
NCI-H23 = test system: NCI-H23
ACHN = test system: ACHN
SK-MEL-28 = test system: SK-MEL-28
786-0 = test system: 786-0
IGROV-1 = test system: IGROV-1
HL-60 = test system: HL-60
SK-MEL-2 = test system: SK-MEL-2
SNB-75 = test system: SNB-75
NCI-H460 = test system: NCI-H460
SR = test system: SR
CAKI-1 = test system: CAKI-1
SW-620 = test system: SW-620
SNB-19 = test system: SNB-19
EKVX = test system: EKVX
HOP-62 = test system: HOP-62
HOP-92 = test system: HOP-92
HT-29 = test system: HT-29
SK-OV-3 = test system: SK-OV-3
SN12C = test system: SN12C
MDA-MB-435 = test system: MDA-MB-435
MDA-MB-231 = test system: MDA-MB-231
OVCAR-8 = test system: OVCAR-8
M14 = test system: M14
SF-295 = test system: SF-295
K562 = test system: K562
KM12 = test system: KM12
UACC-257 = test system: UACC-257
T47D = test system: T47D
HCT-116 = test system: HCT-116
RPMI-8226 = test system: RPMI-8226
OVCAR-4 = test system: OVCAR-4
NCI-H522 = test system: NCI-H522
MDA-N = test system: MDA-N
NCI/ADR-RES = test system: NCI/ADR-RES
LOX IMVI = test system: LOX IMVI
SF-268 = test system: SF-268
HCC 2998 = test system: HCC 2998
MOLT-4 = test system: MOLT-4
DU-145 = test system: DU-145
MCF7 = test system: MCF7
HCT-15 = test system: HCT-15
UO-31 = test system: UO-31
OVCAR-5 = test system: OVCAR-5
Malme-3M = test system: Malme-3M
CCRF-CEM = test system: CCRF-CEM
UACC-62 = test system: UACC-62
U-251 = test system: U-251
Hs-578T = test system: Hs-578T
A549 = test system: A549
SF-539 = test system: SF-539
A498 = test system: A498

With `CN(C)C(=O)O/N=C1/C(=C2/C(=O)Nc3ccccc32)Nc2ccccc21` as the compound, how does the GI50 (OVCAR-3) read?
The GI50 was 8.99 µM (inactive).

What about the GI50 (RXF 393) of the same compound?
Its GI50 is 1.57 µM (inactive).

What about the GI50 (BT-549) of the same compound?
The GI50 was 13.4 µM (inactive).

And the GI50 (SK-MEL-5)?
Its GI50 is 24.2 µM (inactive).

And the GI50 (TK-10)?
Its GI50 is 17.4 µM (inactive).

What about the GI50 (COLO 205) of the same compound?
Its GI50 is > 100 µM (inactive).

What about the GI50 (NCI-H23) of the same compound?
The GI50 was 28.7 µM (inactive).

And the GI50 (ACHN)?
Its GI50 is 19.2 µM (inactive).

What about the GI50 (SK-MEL-28) of the same compound?
Its GI50 is 36.5 µM (inactive).

And the GI50 (786-0)?
Its GI50 is 6.98 µM (inactive).

What about the GI50 (IGROV-1) of the same compound?
The GI50 was 0.711 µM (active).

And the GI50 (HL-60)?
The GI50 was > 100 µM (inactive).

What about the GI50 (SK-MEL-2) of the same compound?
The GI50 was 8.53 µM (inactive).

What about the GI50 (SNB-75) of the same compound?
Its GI50 is 2.45 µM (inactive).

And the GI50 (NCI-H460)?
Its GI50 is 7.96 µM (inactive).

What about the GI50 (SR) of the same compound?
The GI50 was 4.89 µM (inactive).

And the GI50 (CAKI-1)?
Its GI50 is 0.883 µM (active).

What about the GI50 (SW-620) of the same compound?
Its GI50 is 53.7 µM (inactive).

And the GI50 (SNB-19)?
The GI50 was 10.9 µM (inactive).

What about the GI50 (EKVX) of the same compound?
The GI50 was 4.83 µM (inactive).

And the GI50 (HOP-62)?
The GI50 was 14.1 µM (inactive).

What about the GI50 (HOP-92) of the same compound?
The GI50 was 6.21 µM (inactive).

And the GI50 (HT-29)?
Its GI50 is 38.8 µM (inactive).

What about the GI50 (SK-OV-3) of the same compound?
The GI50 was 11.8 µM (inactive).

What about the GI50 (SN12C) of the same compound?
The GI50 was 22.8 µM (inactive).

And the GI50 (MDA-MB-435)?
Its GI50 is 50.7 µM (inactive).

What about the GI50 (MDA-MB-231) of the same compound?
The GI50 was 11.6 µM (inactive).

What about the GI50 (OVCAR-8) of the same compound?
Its GI50 is 9.75 µM (inactive).

And the GI50 (M14)?
Its GI50 is 50.1 µM (inactive).

And the GI50 (SF-295)?
The GI50 was 19.1 µM (inactive).

And the GI50 (K562)?
Its GI50 is 27.7 µM (inactive).

What about the GI50 (KM12) of the same compound?
Its GI50 is 0.304 µM (active).

What about the GI50 (UACC-257) of the same compound?
Its GI50 is 27.2 µM (inactive).

What about the GI50 (T47D) of the same compound?
Its GI50 is 2.76 µM (inactive).

And the GI50 (HCT-116)?
The GI50 was 19.1 µM (inactive).

What about the GI50 (RPMI-8226) of the same compound?
The GI50 was > 100 µM (inactive).

And the GI50 (OVCAR-4)?
Its GI50 is 6.81 µM (inactive).

What about the GI50 (NCI-H522) of the same compound?
Its GI50 is 8.75 µM (inactive).

And the GI50 (MDA-N)?
Its GI50 is 46.2 µM (inactive).

And the GI50 (NCI/ADR-RES)?
The GI50 was 21.9 µM (inactive).

And the GI50 (LOX IMVI)?
The GI50 was 86.3 µM (inactive).

And the GI50 (SF-268)?
Its GI50 is 6.68 µM (inactive).

What about the GI50 (HCC 2998) of the same compound?
The GI50 was 38.5 µM (inactive).

What about the GI50 (MOLT-4) of the same compound?
The GI50 was 10.4 µM (inactive).

And the GI50 (DU-145)?
Its GI50 is 8.83 µM (inactive).

And the GI50 (MCF7)?
The GI50 was 17 µM (inactive).

What about the GI50 (HCT-15) of the same compound?
Its GI50 is 19.2 µM.

And the GI50 (UO-31)?
Its GI50 is 21.6 µM (inactive).

And the GI50 (OVCAR-5)?
The GI50 was 31 µM (inactive).

What about the GI50 (Malme-3M) of the same compound?
The GI50 was 4.25 µM (inactive).

And the GI50 (CCRF-CEM)?
Its GI50 is > 100 µM (inactive).

What about the GI50 (UACC-62) of the same compound?
Its GI50 is 16.1 µM (inactive).

What about the GI50 (U-251) of the same compound?
Its GI50 is 11.7 µM (inactive).

What about the GI50 (Hs-578T) of the same compound?
Its GI50 is 9.35 µM (inactive).

And the GI50 (A549)?
The GI50 was 20.5 µM (inactive).

What about the GI50 (SF-539) of the same compound?
Its GI50 is 9.77 µM (inactive).

And the GI50 (A498)?
The GI50 was 1.5 µM (inactive).
